These results are taken from patent publication US20250197490A1, “ANTI-CORTICOTROPIN-RELEASING HORMONE ANTIBODIES AND USE IN CONGENITAL ADRENAL HYPERPLASIA” (HBM ALPHA THERAPEUTICS, INC., priority 2021, published 2025).

The subject of this experiment is human CRHR1. Nature of the experiment: CRH-induced luciferase reporter blocking in CHO-CRE-hCRHR1 cells. The note with it: in words. The experiment is classed as cell-based. As for the experimental part: To generate a CHO-CRE-Luciferase Reporter stable cell line, a mixture of 2 million CHO-K1 cells with 10 μg of pGL4.29/luc2P/CRE/Hygro plasmid in 100 μl of Ingenio solution was transferred into electroporation cuvettes and subjected to 1 or 2 pulses using an Electro Cell Manipulator (950 uF and 120V). The processed cells were transferred into a 6-well plate with 2 mL of Dulbecco's Modified Eagle's Medium (DMEM)/F12 with 10% fetal bovine serum (FBS). After 24 hours, selection antibiotic hygromycin at 500 μg/ml was added to the cells. […] Using matrix dilution, the pool of CHO-CRE cells was subcloned into 96-well plates. Individual stable clones were harvested when selected colonies became obvious. Positive clones were validated using a series of diluted forskolin. Validated positive clones were frozen for the future use.
To create CHO-CRE-hCRHR1,-hCRHR2,-mCRHR1, and -mCRHR2 reporter cell lines, pcDNA3.1-hCRHR1,-hCRHR2,-mCRHR1, and -mCRHR2 were introduced into CHO-CRE cells established above by electroporation as described above. Selection antibiotics hygromycin at 500 μg/ml and G418 at 1,000 μg/ml were employed. […]
50 μl of 4× serially diluted antibodies was added (8 points, ¼ diluted by growth medium) to plates containing CHO-CRE-hCRHR1 cells, and 50 μl of 4×CRH (4× is 2 nM, final is 0.5 nM) was added. […] Plates were read in a luciferase plate reader (En Vision, PerkinElmer).

SMILES strings stand for the structures.

Regarding `CCCCN(CC)c1nc(C)nc2c1c(C)c(C)n2-c1c(C)cc(C)cc1C` [Antalarmin, N-butyl-N-ethyl-(2,5,6-trimethyl-7-(2,4,6-trimethylphenyl)-7H-pyrrolo (2,3-d)pyrimidin-4-yl)amine, reference compound], the “blocking activity in human CRHR1 luciferase reporter assay (CRH-mediated luciferase expression)” value was “blocked”.
